The results in this text go back to PubChem BioAssay (NCI).

Some test systems named below: NCI-H226 lung; SK-MEL-2 melanoma; MDA-MB-231 breast; SN12C renal; SK-MEL-5 melanoma; SF-539 CNS; RXF 393 renal; OVCAR-3 ovarian; HCT-15 colon; 786-0 renal.
Common to all, as to test: growth of human tumour cells (NCI), 48 h

“And” between values parts separate entries of the source, which are not always exact repeats. Equal values may be shown once.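 Interpolation was linear, between the two tested concentrations surrounding the appropriate level; five concentrations were tested over 48 hours in 96-well plates. Abbreviation: GI50, concentration required for 50% inhibition of growth. TGI is the concentration that stops growth completely.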

`Cc1cc(=O)oc2cc(OC(=O)Nc3ccc(Cl)c(Cl)c3)ccc12`: the TGI in the assay on NCI-H226 lung turned out to be 46.6 µM; in the assay on SK-MEL-2 melanoma, 56.1 µM; with MDA-MB-231 breast, 58 µM; with SN12C renal, 70.9 µM; in the assay on SK-MEL-5 melanoma, 29.7 µM; in the assay on SF-539 CNS it was 38.5 µM. Also, the TGI in the assay on RXF 393 renal was 52.3 µM; in the assay on OVCAR-3 ovarian, 50.2 µM; with HCT-15 colon, > 100 µM; in the assay with 786-0 renal it was > 100 µM.
For the compound `COc1cc(-c2oc3c(OC)c(OC)cc(O)c3c(=O)c2OC)ccc1O`, the GI50 in the assay on NCI-H226 lung is 3.88 µM and 12.4 µM; with SK-MEL-2 melanoma, 2.52 µM and 6.91 µM; with SN12C renal, 3.73 µM and 12.4 µM; in the assay on SK-MEL-5 melanoma it was 2.37 µM and 9.11 µM. For the same compound, the TGI in the assay on NCI-H226 lung is 9.68 µM and > 50 µM; with SK-MEL-2 melanoma it was > 100 µM and 32.7 µM; with MDA-MB-231 breast it was > 50 µM; in the assay with SN12C renal it was > 100 µM; with SK-MEL-5 melanoma, > 100 µM and 37.7 µM; in the assay on SF-539 CNS it was > 100 µM and 49.2 µM. In addition, the TGI was > 100 µM in the assay on RXF 393 renal, > 50 µM in the assay with OVCAR-3 ovarian, > 100 µM in the assay with HCT-15 colon and > 100 µM with 786-0 renal.
With `COc1ccc(-c2cnc(-c3ccc(F)cc3)[nH]2)cc1`, the GI50 in the assay on NCI-H226 lung was 11 µM; in the assay on SK-MEL-2 melanoma, 18.8 µM; in the assay with MDA-MB-231 breast it was 24 µM; in the assay with SN12C renal it was 8.34 µM; with SK-MEL-5 melanoma, 7.81 µM; with SF-539 CNS, 9.46 µM. In addition, the GI50 in the assay on RXF 393 renal is 2.2 µM; in the assay with OVCAR-3 ovarian it was 1.64 µM; in the assay with HCT-15 colon, 5.98 µM; with 786-0 renal it was 6.14 µM. The TGI was > 62.3 µM with NCI-H226 lung; 45 µM in the assay with SK-MEL-2 melanoma; > 77.7 µM in the assay with MDA-MB-231 breast; 23.7 µM in the assay with SN12C renal; 20.7 µM with SK-MEL-5 melanoma; 29.6 µM in the assay on SF-539 CNS. For the same compound, the TGI in the assay on RXF 393 renal is 5.59 µM; with OVCAR-3 ovarian, 3.65 µM; in the assay on HCT-15 colon it was 13.9 µM; in the assay with 786-0 renal it was 12.3 µM.
Take `C=C(CN1CCN(c2cccc(C(F)(F)F)c2)CC1)c1ccc(C(=O)Nc2ccccc2N)cc1`: the GI50 in the assay with NCI-H226 lung is 1.89 µM; in the assay with SK-MEL-2 melanoma, 3.44 µM; in the assay with MDA-MB-231 breast, 0.941 µM; in the assay on SN12C renal it was 2.19 µM; with SK-MEL-5 melanoma, 0.568 µM; in the assay with SF-539 CNS it was 0.543 µM. In addition, the GI50 is 1.62 µM with RXF 393 renal, 0.545 µM with OVCAR-3 ovarian, 0.48 µM in the assay with HCT-15 colon and 1.1 µM in the assay with 786-0 renal. Also, the TGI in the assay with NCI-H226 lung stood at 20.1 µM; in the assay with SK-MEL-2 melanoma, 32.2 µM; in the assay on MDA-MB-231 breast it was 3.39 µM; in the assay with SN12C renal it was 14.5 µM; in the assay with SK-MEL-5 melanoma it was 6.72 µM; with SF-539 CNS it was 2.82 µM. Moreover, the TGI with OVCAR-3 ovarian is 6.2 µM; in the assay on HCT-15 colon, 3.62 µM; with 786-0 renal it was 8.96 µM.
As for `N#C/C(=C/C=C(\Cl)c1ccc(Cl)cc1)C(N)=O`, the GI50 in the assay with NCI-H226 lung was 4.96 µM; in the assay with SK-MEL-2 melanoma, > 52.5 µM; in the assay on MDA-MB-231 breast it was 1.97 µM; in the assay with SN12C renal, 4.38 µM; in the assay on SK-MEL-5 melanoma, 4.56 µM; in the assay with SF-539 CNS, 3.19 µM. Besides, the GI50 in the assay on RXF 393 renal is 3.75 µM; with OVCAR-3 ovarian, 0.269 µM; with HCT-15 colon, 2.79 µM; in the assay with 786-0 renal it was 1.87 µM. The TGI is 13.9 µM in the assay with NCI-H226 lung; > 93.6 µM in the assay on SK-MEL-2 melanoma; 4.82 µM with MDA-MB-231 breast; 18.7 µM with SN12C renal; 15.1 µM in the assay with SK-MEL-5 melanoma; 9.27 µM in the assay with SF-539 CNS. In addition, the TGI in the assay with RXF 393 renal is > 57.6 µM; in the assay on OVCAR-3 ovarian, 1.76 µM; in the assay with HCT-15 colon, > 32.5 µM; in the assay on 786-0 renal, 4.2 µM.
Take `Cc1cc(O)c2c(c1)C(=O)c1cc(O)cc(O)c1C2=O`: the TGI is > 70.9 µM in the assay on NCI-H226 lung; > 74.3 µM in the assay on SK-MEL-2 melanoma; 57.5 µM with MDA-MB-231 breast; > 78.9 µM with SN12C renal; 24.4 µM with SK-MEL-5 melanoma; > 100 µM in the assay with SF-539 CNS. Further, the TGI was > 100 µM in the assay on RXF 393 renal, 42.2 µM in the assay on OVCAR-3 ovarian, > 80.2 µM in the assay with HCT-15 colon and 84.6 µM with 786-0 renal. Moreover, the GI50 in the assay on MDA-MB-231 breast was 16.1 µM; in the assay with SF-539 CNS, 54.2 µM; in the assay on OVCAR-3 ovarian, 14.7 µM; in the assay with 786-0 renal, 25.5 µM.
On to `O=C(Nc1cnn2ccc(N3CCC[C@@H]3c3cc(F)ccc3F)nc12)N1CC[C@H](O)C1`, for which the GI50 with NCI-H226 lung, in the assay on SK-MEL-2 melanoma, in the assay with MDA-MB-231 breast, in the assay with SN12C renal, in the assay with SK-MEL-5 melanoma and with SF-539 CNS was > 100 µM in each case. The GI50 with RXF 393 renal, in the assay with OVCAR-3 ovarian, in the assay on HCT-15 colon and with 786-0 renal was > 100 µM each time. The TGI with NCI-H226 lung, in the assay with SK-MEL-2 melanoma, in the assay with MDA-MB-231 breast, in the assay on SN12C renal, in the assay with SK-MEL-5 melanoma and in the assay on SF-539 CNS was > 100 µM throughout. Moreover, the TGI in the assay on RXF 393 renal, with OVCAR-3 ovarian, in the assay on HCT-15 colon and in the assay with 786-0 renal was > 100 µM throughout.
As to `C=C(CNCCc1ccc(O)cc1)[C@@H]1CC[C@]2(CO)CC[C@]3(C)[C@H](CC[C@@H]4[C@@]5(C)CCC(=O)C(C)(C)[C@@H]5CC[C@]43C)[C@@H]12`, the GI50 in the assay with NCI-H226 lung was 1.62 µM; in the assay with SK-MEL-2 melanoma, 1.75 µM; with MDA-MB-231 breast, 1.76 µM; in the assay with SN12C renal, 1.65 µM; in the assay with SK-MEL-5 melanoma it was 1.63 µM; in the assay on SF-539 CNS, 1.75 µM. The GI50 in the assay with RXF 393 renal was 1.28 µM; in the assay with OVCAR-3 ovarian, 1.67 µM; with HCT-15 colon, 1.47 µM; in the assay on 786-0 renal, 1.6 µM. For the same compound, the TGI amounted to 3.64 µM with NCI-H226 lung; 3.27 µM in the assay on SK-MEL-2 melanoma; 3.2 µM in the assay on MDA-MB-231 breast; 3.12 µM in the assay on SN12C renal; 2.99 µM with SK-MEL-5 melanoma; 3.17 µM in the assay on SF-539 CNS. Besides, the TGI in the assay on RXF 393 renal worked out at 2.59 µM; in the assay with OVCAR-3 ovarian, 3.08 µM; with HCT-15 colon, 2.89 µM; with 786-0 renal, 2.95 µM.
